Drawing on patent publication US12583849B2, “KCNT1 inhibitors and methods of use” (Praxis Precision Medicines, Inc., priority 2020, dated 2026), this text covers IC50 for 21 compounds.

This assay deals with T1, KCNT1 (KNa1.1, Slack) (Homo sapiens, UniProt Q5JUK3).
T1 construct: expressed in transfected cells; host or cells: HEK-TREX (tetracycline-inducible cell line)
T1 sequence (Q5JUK3 1-1230): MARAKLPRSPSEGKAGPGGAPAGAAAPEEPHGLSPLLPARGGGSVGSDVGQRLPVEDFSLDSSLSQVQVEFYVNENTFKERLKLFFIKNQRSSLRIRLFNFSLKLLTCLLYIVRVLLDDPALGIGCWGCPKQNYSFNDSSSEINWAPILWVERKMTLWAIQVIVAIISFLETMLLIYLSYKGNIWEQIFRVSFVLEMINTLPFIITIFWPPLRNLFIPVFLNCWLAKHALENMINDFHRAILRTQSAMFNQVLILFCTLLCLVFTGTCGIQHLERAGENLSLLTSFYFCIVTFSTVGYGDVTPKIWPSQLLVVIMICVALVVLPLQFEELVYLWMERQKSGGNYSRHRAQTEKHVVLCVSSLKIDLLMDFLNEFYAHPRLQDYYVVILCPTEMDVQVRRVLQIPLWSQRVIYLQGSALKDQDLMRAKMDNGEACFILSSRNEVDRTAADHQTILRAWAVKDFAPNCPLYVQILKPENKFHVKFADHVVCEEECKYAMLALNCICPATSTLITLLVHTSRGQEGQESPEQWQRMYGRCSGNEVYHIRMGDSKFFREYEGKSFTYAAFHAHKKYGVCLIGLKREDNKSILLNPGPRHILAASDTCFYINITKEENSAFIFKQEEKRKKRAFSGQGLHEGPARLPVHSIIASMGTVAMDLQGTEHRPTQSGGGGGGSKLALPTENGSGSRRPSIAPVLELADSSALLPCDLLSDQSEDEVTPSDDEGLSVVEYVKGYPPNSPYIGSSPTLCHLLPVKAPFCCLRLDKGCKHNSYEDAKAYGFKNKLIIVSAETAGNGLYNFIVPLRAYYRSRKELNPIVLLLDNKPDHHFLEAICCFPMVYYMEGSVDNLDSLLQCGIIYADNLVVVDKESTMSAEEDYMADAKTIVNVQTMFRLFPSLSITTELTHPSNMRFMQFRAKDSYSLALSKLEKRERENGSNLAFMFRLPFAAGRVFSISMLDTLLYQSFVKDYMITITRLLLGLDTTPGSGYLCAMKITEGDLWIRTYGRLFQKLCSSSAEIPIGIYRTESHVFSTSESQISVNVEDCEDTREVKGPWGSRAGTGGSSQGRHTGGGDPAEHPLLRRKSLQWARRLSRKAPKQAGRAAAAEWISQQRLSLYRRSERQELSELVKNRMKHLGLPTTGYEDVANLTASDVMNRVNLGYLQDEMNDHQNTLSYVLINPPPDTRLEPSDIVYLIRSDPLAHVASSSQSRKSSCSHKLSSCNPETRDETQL
The assay is described as follows: KCNT1-WT-Basal Patch Clamp Assay. The format is cell-based. The settings on record: tetracycline inducible cell line (HEK-TREX); SyncroPatch 384PE automated patch clamp, perforated patch mode, room temperature, step from -80 mV to 0 mV. In short, it runs like this:
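Tetracycline-inducible HEK-TREX cells expressing human KCNT1, recorded by automated perforated patch clamp (10 μM escin) at room temperature, with 4 mM external K+ at pH 7.4. Mean current taken during a 100 ms step from −80 mV to 0 mV, averaged over 3 sweeps. IC50 from Hill fit of % inhibition; otherwise % inhibition at top concentration.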
On the technique in general: In patch-clamp work, channel activity is measured electrically.

Broadly, the IC50 is the concentration that gives 50% inhibition.

The compound `C[C@H](NC(=O)c1cc(F)cc(F)c1)c1nc(-c2ccnc(C3CC3)c2)no1` [Compound I-102, (S)—N-(1-(3-(2-cyclopropylpyridin-4-yl)-1,2,4-oxadiazol-5-yl)ethyl)-3,5-difluorobenzamide] had an IC50 of at most 1000 nM.
Then `C[C@H](NC(=O)c1cccc(OC(F)(F)F)c1)c1nc(-c2ccnc(C3CC3)c2)no1` [Compound I-103, (S)—N-(1-(3-(2-cyclopropylpyridin-4-yl)-1,2,4-oxadiazol-5-yl)ethyl)-3-(trifluoromethoxy)benzamide], with at most 1000 nM; and `C[C@H](NC(=O)c1nccn1C1CCC1)c1nc(-c2ccnc(C3CC3)c2)no1` [Compound I-104, (S)-1-cyclobutyl-N-(1-(3-(2-cyclopropylpyridin-4-yl)-1,2,4-oxadiazol-5-yl)ethyl)-1H-imidazole-2-carboxamide], with 1000 to 20000 nM; and `C[C@H](NC(=O)C1CCCC1)c1nc(-c2ccnc(C3CC3)c2)no1` [Compound I-105, (S)—N-(1-(3-(2-cyclopropylpyridin-4-yl)-1,2,4-oxadiazol-5-yl)ethyl)cyclopentanecarboxamide], with at most 1000 nM.
Then `CC(C)Oc1cc(-c2noc([C@H](C)NC(=O)NC(C)(C)C)n2)ccn1` [II-1], with at most 1000 nM.
Then `CC(C)Oc1cc(-c2noc([C@H](C)NC(=O)N3CCCCC3)n2)ccn1` [II-2], with at most 1000 nM; and `CC(C)Oc1cc(-c2noc([C@H](C)NC(=O)N3CCCc4ccccc43)n2)ccn1` [II-3], with at most 1000 nM.
The compound `CC(C)Oc1cc(-c2noc([C@H](C)NC(=O)N3CCOc4ccccc43)n2)ccn1` [II-4] showed an IC50 of at most 1000 nM.
With `CC(C)Oc1cc(-c2noc([C@H](C)NC(=O)N(C)C(C)(C)C)n2)ccn1` [II-5], the IC50 is at most 1000 nM.
On to `C[C@H](NC(=O)N1CCOc2ccccc21)c1nc(-c2ccnc(C3CC3)c2)no1` [II-6], for which the IC50 was at most 1000 nM.
Then `C[C@H](NC(=O)NC(C)(C)C)c1nc(-c2ccnc(C3CC3)c2)no1` [II-7], with at most 1000 nM.
Then `C[C@H](NC(=O)N1CCCc2ccccc21)c1nc(-c2ccnc(C3CC3)c2)no1` [II-8], with at most 1000 nM; and `C[C@H](NC(=O)N(C)C(C)(C)C)c1nc(-c2ccnc(C3CC3)c2)no1` [II-9], with at most 1000 nM; and `C[C@H](NC(=O)N1CCCCC1)c1nc(-c2ccnc(C(F)(F)F)c2)no1` [II-10], with 1000 to 20000 nM.
Then `C[C@H](NC(=O)N1CCc2ccccc2C1)c1nc(-c2ccnc(C(F)(F)F)c2)no1` [II-11], with at most 1000 nM; and `C[C@H](NC(=O)N(C)c1ccccc1)c1nc(-c2ccnc(C(F)(F)F)c2)no1` [II-12], with at most 1000 nM; and `C[C@H](NC(=O)CN(C)C)c1nc(-c2ccnc(C(F)(F)F)c2)no1` [III-1, (S)-2-(dimethylamino)-N-(1-(3-(2-(trifluoromethyl)pyridin-4-yl)-1,2,4-oxadiazol-5-yl)ethyl)acetamide], with at least 20000 nM.
Take `C[C@H](NC(=O)CC(F)(F)F)c1nc(-c2ccnc(C(F)(F)F)c2)no1` [III-2, (S)-3,3,3-trifluoro-N-(1-(3-(2-(trifluoromethyl)pyridin-4-yl)-1,2,4-oxadiazol-5-yl)ethyl)propenamide]: the IC50 is 1000 to 20000 nM.
In turn, `C[C@H](NC(=O)CC(C)(C)C)c1nc(-c2ccnc(C(F)(F)F)c2)no1` [III-3, (S)-3,3-dimethyl-N-(1-(3-(2-(trifluoromethyl)pyridin-4-yl)-1,2,4-oxadiazol-5-yl)ethyl)butanamide] returned an IC50 of 1000 to 20000 nM.
Then `C[C@H](NC(=O)CN(C)c1ccccc1)c1nc(-c2ccnc(C(F)(F)F)c2)no1` [III-4, (S)-2-(methyl(phenyl)amino)-N-(1-(3-(2-(trifluoromethyl)pyridin-4-yl)-1,2,4-oxadiazol-5-yl)ethyl)acetamide], with at most 1000 nM.
Then `C[C@H](NC(=O)C(C)(C)C)c1nc(-c2ccnc(C3CC3)c2)no1` [III-5], with at most 1000 nM.
